Test results reported in ChEMBL document CHEMBL2157944, “Evaluation of structure-derived pharmacophore of soluble epoxide hydrolase inhibitors by virtual screening” (Bioorg Med Chem Lett, 2012).
pIC50: −log10 of the molar value.

How the values were obtained:
[1] = biological target: T1, Bifunctional epoxide hydrolase 2 (Homo sapiens, UniProt P34913); assay: Inhibition of sEH using (3-Phenyl-oxiranyl)-acetic acid cyano-(6-methoxy-naphthalen-2-yl)-methyl ester) as substrate incubated for 15 mins prior to substrate addition measured every min for 15 mins by fluorimetric analysis
T1 sequence (P34913 whole entry): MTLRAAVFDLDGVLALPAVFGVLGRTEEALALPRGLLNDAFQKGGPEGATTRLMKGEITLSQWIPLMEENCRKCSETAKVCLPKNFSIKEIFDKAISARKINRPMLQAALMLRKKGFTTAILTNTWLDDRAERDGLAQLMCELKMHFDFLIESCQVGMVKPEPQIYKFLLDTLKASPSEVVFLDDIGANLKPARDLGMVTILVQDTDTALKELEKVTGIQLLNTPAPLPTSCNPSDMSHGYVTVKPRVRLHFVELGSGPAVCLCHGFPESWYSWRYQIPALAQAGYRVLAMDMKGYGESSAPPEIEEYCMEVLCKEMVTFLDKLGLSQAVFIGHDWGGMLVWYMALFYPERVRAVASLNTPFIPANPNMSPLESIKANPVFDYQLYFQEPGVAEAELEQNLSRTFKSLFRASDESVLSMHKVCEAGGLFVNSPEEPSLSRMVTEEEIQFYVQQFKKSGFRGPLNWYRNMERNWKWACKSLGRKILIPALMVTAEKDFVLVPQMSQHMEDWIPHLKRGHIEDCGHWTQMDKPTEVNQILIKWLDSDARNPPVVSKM

[2] = Solubility of the compound; assay type: physicochemical
[3] = Solubility of the compound at >100 uM; assay type: physicochemical

pIC50 [1]	SMILES	further results
4.60	O=C(NCCCNc1ncc(-c2ccncc2)c(C2CC2)n1)c1ccccn1	
	NS(=O)(=O)c1ccc(CNc2ncc(-c3ccncc3)c(C3CC3)n2)cc1	solubility [2]: Insoluble
5.26	O=C(Nc1cccc(O)c1)OCC1c2ccccc2-c2ccccc21	
	Cc1cc(-c2cnc(NCCCc3ccccn3)nc2C(C)C)on1	solubility [3]: Insoluble
5.49	O=C(Nc1cccc(Cl)c1)OCCCNS(=O)(=O)c1cccc([N+](=O)[O-])c1	
